Data on four compounds can be found in the NIST ThermoML archive (doi:10.1021/je5007218).

This data set in a line: refractive index (Na D-line) (dimensionless). To be noted: 293.15 K; 101.33 kPa; Liquid; Standard Abbe refractometry.

Numbers after ± are expanded uncertainties.

As usually defined, the refractive index is a measure of how strongly the sample bends light. For `CC(C)CO` [2-methyl-1-propanol], the refractive index is recorded as 1.39563 ± 0.0004.
To `CC#N` [acetonitrile] belongs 1.34386 ± 0.00035; to `CCCCO` [butan-1-ol], 1.39928 ± 0.0004; to `O` [water], 1.33299 ± 0.00035.
